Measurements reported in patent US8309550B2, “Kinase inhibitors and their use as pharmaceutical agents” (Shanghai Genomics, Inc., priority 2011, dated 2012).

What was measured:
[1] = system: PC-3M-luc; assay: 72 h MTT cell viability PC-3M-luc; assay type: cell-based; details: Homo sapiens
Source text: (§1) MIT cytotoxicity assay. The compounds of the invention were subjected to a standard cellular proliferation assay using human cell lines. HeLa cells (Human cervix adenocarcinoma cell line, ATCC NO, CCL-2); A549 cells (Human lung carcinoma cells line, ATCC NO, CCL-185); U2OS cells (Human osteosarcoma cell line, ATCC NO, HTB-96); Eca-109 cells (Human esophageal carcinoma cell line); HepG2 (Human hepatocellular liver carcinoma cell line, ATCC NO, HB-8065); K562 cells (Human chronic myelogenous leukemia cell line, ATCC NO, CCL-243); SK-MEL-28 (Human malignant melanoma cell line, ATCC NO, HTB-72); Molt-4 (Human acute lymphoblastic leukemia cell line, ATCC NO, CRL-1582); H460 (Human large cell lung cancer cell line, ATCC NO, HTB-177); MDA-MB-231 (Human breast adenocarcinoma cell line, ATCC NO, HTB-26); MCF7 (Human breast adenocarcinoma cell line, ATCC NO, HTB-22); ACHN (Human renal cell adenocarcinoma cell line, ATCC NO, CRL-1611); PC-3M (Human prostate adenocarcinoma cell line, ATCC NO CRL-1435); HL60 (Human acute promyelocytic leukemia cell line, ATCC NO, CCL-240); THP-1 (Human acute monocytic leukemia, ATCC NO, TIB-202); Jurkat (Human acute T cell leukemia cell line, ATCC NO, CRL-2063); HCT-116 (Human colorectal carcinoma cell line, ATCC NO, CCL-247); HT-29 (Human colorectal adenocarcinoma cell line, ATCC NO, HTB-38™); WI-38 (Human normal lung cell line, ATCC NO, CCL-75); MRC-5 (Human normal lung cell line, ATCC NO, CCL-171).
(§2) HepG2, MDA-MB-231, WI-38 and MRC-5 cells were obtained from Shanghai Institute of Cell Biology, Chinese Academy of Sciences (Shanghai 200031, China). A549, HeLa, K562, MCF7, ACHN, H460, U2OS, Eca-109, MCF7, HL60, THP-1, Jurkat, HCT-116, HT-29, PC-3M, SK-MEL-28, Molt-4, H460 and […] cells were purchased from ATCC (American Type Culture Collection, USA).
(§3) Standard 72 h MTT (thiazolye blue; 3-[4,5-dimethylthiazol-2-yl]-2,5-diphenyltetrazolium bromide) assays were performed. Briefly, the cell lines used in this study were recovered and cultured according to the conditions recommended. 4000 cells per well were seeded into 96-well plates according to doubling time and incubated overnight at 37° C. Compounds were prepared in DMSO and a ½ dilution series in 100 μl cell culture media, added to cells (in duplicates) with the final DMSO concentration of 0.025%, and incubated for 72 hrs at 37° C. MTT solution (5 mg/ml) was added at 10 μl per well and incubated in the dark at 37° C. for 4 hr. Culture medium and MTT solution was removed. MTT dye was solubilised with 100 μl per well of DMSO with agitation. Absorbance was read at 562 nm and data analyzed using Sigmoid curve-fitting software Origin 6.0 (MicroCal, LLC, USA) to determine IC50 value.

[2] = system: K562 cells; assay: 72 h MTT cytotoxicity assay K562; assay type: cell-based; details: Homo sapiens; K562, 72 hrs
Source text: as §1, §2, §3

[3] = target: T1, CDK5/p35 (Homo sapiens, UniProt Q00535); assay: Z'-LYTE kinase assay CDK5/p35; assay type: biochemical; details: read-out: Kinase inhibition, IC50 CDK5/p35
T1 construct: purchased Invitrogen PV3000
Method: (§4) Kinase assays. The compounds from the example above were tested for their ability to inhibit kinases. Recombinant human CDK2/cyclinA (PV3267), CDK1/cyclinB (PV3292), CDK5/p35 (PV3000) and Aurora A (PV3612) were purchased from Invitrogen (Carlsbad, Calif., USA). Kinase dosage and Z′-LYTE™ substrate for each kinase assay is as follows: CDK2/cyclinA-8 ng/reaction, Ser/Thr 12 Peptide; CDK1/cyclinB-0.8 ng/reaction, Ser/Thr 12 Peptide, CDK5/p35-0.8 ng/reaction, Ser/Thr 12 Peptide, and Aurora A-16 ng/reaction, Ser/Thr 1 Peptide. All enzymatic assays were performed using Z′-LYTE™ Kinase Assay Kits and were carried out following protocols provided by Invitrogen. To prepare stock solutions, compounds were dissolved at 10 mM in 100% DMSO and stored at 4° C. in amber glass vials. Enzyme reactions were initiated by adding recombinant enzyme and Z′-LYTE™ Ser/Thr peptide substrate and ATP mixture to 384-well plates containing diluted test compounds. Kinase and corresponding peptide substrate were incubated for 1 hr at room temperature in the presence of varying amounts of test compound with reaction buffer (20 μM ATP, […] [pH 7.5], 5 mM MgCl2, 0.5 mM EGTA, 0.005% Brij-35). Development buffer was added and incubated for another one hour at room temperature. Reactions were terminated by addition of stop buffer, and fluorescence emission intensity ratio 445 nm/520 nm (excited at 400 nm) was quantified by VICTOR-3 Multilabel Reader (Perkin-Elmer, Waltham, Mass., USA). Phosphorylation was calculated from the emission ratio. IC50 was determined using Sigmoid curve-fitting software Origin 6.0 (MicroCal, LLC, Northampton, Mass., USA).

[4] = system: MCF7; assay: 72 h MTT cytotoxicity assay MCF7; assay type: cell-based; details: Homo sapiens; MCF7, 72 hrs
Source text: as §1, §2, §3

[5] = system: HeLa cells; assay: 72 h MTT cytotoxicity assay HeLa; assay type: cell-based; details: Homo sapiens
Source text: as §1, §2, §3

[6] = system: Eca-109 cells; assay: 72 h MTT cytotoxicity assay Eca-109; assay type: cell-based; details: Homo sapiens; Eca-109, 72 hrs
Source text: as §1, §2, §3

[7] = system: SK-MEL-28-luc; assay: 72 h MTT cytotoxicity assay SK-MEL-28-luc; assay type: cell-based; details: Homo sapiens
Source text: as §1, §2, §3

[8] = system: Molt-4-luc; assay: 72 h MTT cytotoxicity assay Molt-4-luc; assay type: cell-based; details: Homo sapiens
Source text: as §1, §2, §3

[9] = system: U2OS cells; assay: 72 h MTT cytotoxicity assay U2OS; assay type: cell-based; details: Homo sapiens
Source text: as §1, §2, §3

[10] = target: T2, CDK2/cyclinA (Homo sapiens, UniProt P24941); assay: Z'-LYTE kinase assay CDK2/cyclinA; assay type: biochemical; details: read-out: Kinase inhibition, IC50 CDK2A
T2 construct: purchased Invitrogen PV3267
Method: as §4

[11] = system: ACHN-luc; assay: 72 h MTT cell viability ACHN-luc; assay type: cell-based; details: Homo sapiens
Source text: as §1, §2, §3

[12] = target: T3, Aurora A (Homo sapiens, UniProt O14965); assay: Z'-LYTE kinase assay Aurora A; assay type: biochemical; details: read-out: Kinase inhibition, IC50 Aurora A
T3 construct: purchased Invitrogen PV3612
T3 sequence (O14965 1-403): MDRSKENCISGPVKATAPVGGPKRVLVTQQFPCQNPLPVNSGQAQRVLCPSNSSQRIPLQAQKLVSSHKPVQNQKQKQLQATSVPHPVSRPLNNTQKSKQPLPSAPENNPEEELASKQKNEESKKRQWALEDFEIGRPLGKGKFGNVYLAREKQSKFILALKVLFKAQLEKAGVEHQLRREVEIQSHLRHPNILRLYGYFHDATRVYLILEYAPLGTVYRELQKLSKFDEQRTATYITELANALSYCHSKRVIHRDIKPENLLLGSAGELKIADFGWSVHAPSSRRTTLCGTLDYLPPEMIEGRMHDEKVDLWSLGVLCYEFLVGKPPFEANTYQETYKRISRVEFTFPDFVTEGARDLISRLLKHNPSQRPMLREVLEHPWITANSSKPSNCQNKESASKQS
Method: as §4

[13] = system: HepG2; assay: 72 h MTT cytotoxicity assay HepG2; assay type: cell-based; details: Homo sapiens; HepG2, 72 hrs
Source text: as §1, §2, §3

[14] = system: HL-60; assay: 72 h MTT cell viability HL-60; assay type: cell-based; details: Homo sapiens
Source text: as §1, §2, §3

[15] = target: Aurora B (Homo sapiens, UniProt Q96GD4); assay: Kinase assay Aurora B (Table I); assay type: biochemical; details: read-out: Kinase inhibition, IC50 Aurora B
Method: [The source words this procedure for another target and reports this target under the same test.] as §4

[16] = target: T4, CDK1/cyclinB (Homo sapiens, UniProt P06493); assay: Z'-LYTE kinase assay CDK1/cyclinB; assay type: biochemical; details: read-out: Kinase inhibition, IC50 CDK1B
T4 construct: purchased Invitrogen PV3292
Method: as §4

[17] = system: MDA-MB-231-luc; assay: 72 h MTT cell viability MDA-MB-231-luc; assay type: cell-based; details: Homo sapiens
Source text: as §1, §2, §3

[18] = system: A549 cells; assay: 72 h MTT cytotoxicity assay A549; assay type: cell-based; details: Homo sapiens; A549, 72 hrs
Source text: as §1, §2, §3

[19] = target: CDK9T1 (Homo sapiens, UniProt P50750); assay: Kinase assay CDK9T1 (Table I); assay type: biochemical; details: read-out: Kinase inhibition, IC50 CDK9T1
Method: [The source words this procedure for another target and reports this target under the same test.] as §4

[20] = system: H460-luc; assay: 72 h MTT cytotoxicity assay H460-luc; assay type: cell-based; details: Homo sapiens, NCI-H460-Luc; H460-luc, 72 hrs; read-out: Cytotoxicity, MTT 72 hrs, IC50 H460-luc
Source text: as §1, §2, §3

[21] = system: WI-38; assay: 72 h MTT cell viability WI-38 (normal lung); assay type: cell-based; details: Homo sapiens; WI-38, normal lung cell line
Source text: as §1, §2, §3

Sequence of CDK9T1 (P50750 whole entry): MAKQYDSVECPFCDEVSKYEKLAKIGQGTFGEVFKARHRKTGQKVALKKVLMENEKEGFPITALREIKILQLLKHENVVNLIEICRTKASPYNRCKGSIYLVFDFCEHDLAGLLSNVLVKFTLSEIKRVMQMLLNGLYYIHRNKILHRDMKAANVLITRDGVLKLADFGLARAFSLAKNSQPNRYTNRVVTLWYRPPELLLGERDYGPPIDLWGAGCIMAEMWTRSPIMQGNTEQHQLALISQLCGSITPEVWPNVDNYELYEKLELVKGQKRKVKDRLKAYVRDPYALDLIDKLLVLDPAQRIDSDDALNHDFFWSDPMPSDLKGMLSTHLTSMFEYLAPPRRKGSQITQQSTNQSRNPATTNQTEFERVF
Sequence of CDK9T1 (O60563 whole entry partner): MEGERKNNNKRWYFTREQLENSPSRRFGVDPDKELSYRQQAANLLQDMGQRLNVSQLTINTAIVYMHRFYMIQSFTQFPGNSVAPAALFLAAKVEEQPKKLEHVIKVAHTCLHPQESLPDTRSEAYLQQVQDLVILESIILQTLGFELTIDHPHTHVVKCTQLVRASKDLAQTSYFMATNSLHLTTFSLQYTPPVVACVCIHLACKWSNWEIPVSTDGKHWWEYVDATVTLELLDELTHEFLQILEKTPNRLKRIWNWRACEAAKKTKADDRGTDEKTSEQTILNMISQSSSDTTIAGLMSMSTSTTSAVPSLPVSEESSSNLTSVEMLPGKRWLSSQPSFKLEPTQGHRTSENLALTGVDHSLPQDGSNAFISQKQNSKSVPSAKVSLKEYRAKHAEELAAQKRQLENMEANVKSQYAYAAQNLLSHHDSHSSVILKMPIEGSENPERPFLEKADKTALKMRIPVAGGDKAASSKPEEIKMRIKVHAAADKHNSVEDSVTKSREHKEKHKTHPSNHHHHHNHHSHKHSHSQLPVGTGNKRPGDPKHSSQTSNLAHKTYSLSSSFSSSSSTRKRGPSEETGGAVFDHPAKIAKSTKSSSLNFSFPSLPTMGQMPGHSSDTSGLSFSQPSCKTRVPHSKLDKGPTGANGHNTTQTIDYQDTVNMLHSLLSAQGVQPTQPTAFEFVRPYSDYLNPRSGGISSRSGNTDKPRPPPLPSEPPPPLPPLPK
T4 sequence (P06493 whole entry): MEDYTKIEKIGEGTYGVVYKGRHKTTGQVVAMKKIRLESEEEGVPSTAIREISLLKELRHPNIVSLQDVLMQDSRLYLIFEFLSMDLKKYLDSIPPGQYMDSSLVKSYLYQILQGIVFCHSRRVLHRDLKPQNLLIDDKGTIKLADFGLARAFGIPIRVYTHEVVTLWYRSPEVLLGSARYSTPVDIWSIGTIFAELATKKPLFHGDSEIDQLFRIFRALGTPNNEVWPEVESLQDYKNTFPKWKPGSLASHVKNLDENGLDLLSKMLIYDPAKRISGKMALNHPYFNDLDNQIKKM
T4 sequence (P14635 whole entry partner): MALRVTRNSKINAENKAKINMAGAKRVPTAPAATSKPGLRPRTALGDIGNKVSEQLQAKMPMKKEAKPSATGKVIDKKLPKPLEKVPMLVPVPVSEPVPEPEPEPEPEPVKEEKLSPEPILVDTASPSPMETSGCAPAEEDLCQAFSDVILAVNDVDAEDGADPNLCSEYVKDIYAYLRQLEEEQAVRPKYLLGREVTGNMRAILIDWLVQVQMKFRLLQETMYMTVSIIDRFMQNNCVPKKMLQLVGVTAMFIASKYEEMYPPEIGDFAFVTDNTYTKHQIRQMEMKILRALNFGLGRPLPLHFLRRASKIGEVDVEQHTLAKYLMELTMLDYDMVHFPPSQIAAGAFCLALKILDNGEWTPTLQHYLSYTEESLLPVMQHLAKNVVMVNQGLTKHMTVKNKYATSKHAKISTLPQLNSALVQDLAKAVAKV
Sequence of Aurora B (Q96GD4 whole entry): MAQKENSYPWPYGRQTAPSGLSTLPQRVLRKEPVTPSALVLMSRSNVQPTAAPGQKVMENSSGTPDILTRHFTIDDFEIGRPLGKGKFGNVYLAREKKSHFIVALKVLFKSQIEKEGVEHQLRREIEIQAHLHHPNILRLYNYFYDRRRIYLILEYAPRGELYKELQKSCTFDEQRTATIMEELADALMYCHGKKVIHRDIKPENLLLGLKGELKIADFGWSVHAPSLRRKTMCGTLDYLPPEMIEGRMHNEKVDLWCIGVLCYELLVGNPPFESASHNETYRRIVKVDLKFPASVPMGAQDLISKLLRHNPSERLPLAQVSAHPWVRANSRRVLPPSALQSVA
T1 sequence (Q00535 whole entry): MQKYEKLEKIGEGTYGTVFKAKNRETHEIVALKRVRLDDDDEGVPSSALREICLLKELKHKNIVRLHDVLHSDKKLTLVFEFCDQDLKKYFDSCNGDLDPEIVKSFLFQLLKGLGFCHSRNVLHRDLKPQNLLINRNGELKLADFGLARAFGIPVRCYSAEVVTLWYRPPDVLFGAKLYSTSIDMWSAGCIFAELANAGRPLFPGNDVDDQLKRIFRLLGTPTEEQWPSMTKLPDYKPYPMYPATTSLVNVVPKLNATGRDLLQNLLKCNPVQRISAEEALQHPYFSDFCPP
T1 sequence (Q15078 whole entry partner): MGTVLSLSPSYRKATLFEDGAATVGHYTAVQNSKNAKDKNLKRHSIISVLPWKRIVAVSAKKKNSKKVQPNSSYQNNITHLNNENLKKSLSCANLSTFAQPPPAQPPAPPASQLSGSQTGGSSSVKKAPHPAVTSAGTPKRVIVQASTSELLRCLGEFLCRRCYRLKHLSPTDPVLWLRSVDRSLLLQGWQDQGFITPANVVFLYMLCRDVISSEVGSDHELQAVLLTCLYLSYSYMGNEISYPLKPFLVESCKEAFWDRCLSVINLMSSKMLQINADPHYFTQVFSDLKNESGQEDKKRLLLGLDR

| Structure (SMILES) | IC50 [2] [µM] | IC50 [3] [µM] | IC50 [4] [µM] | IC50 [5] [µM] | IC50 [6] [µM] | IC50 [7] [µM] | IC50 [8] [µM] | IC50 [9] [µM] | IC50 [10] [µM] | IC50 [11] [µM] | IC50 [12] [µM] | IC50 [13] [µM] | IC50 [15] [µM] | IC50 [16] [µM] | IC50 [17] [µM] | IC50 [18] [µM] | IC50 [19] [µM] | IC50 [20] [µM] | IC50 [21] [µM] | other results |
| --- | --- | --- | --- | --- | --- | --- | --- | --- | --- | --- | --- | --- | --- | --- | --- | --- | --- | --- | --- | --- |
| CCCn1cc(-c2ccnc(Nc3ccc(S(N)(=O)=O)cc3)n2)c2nc(Cl)cc(C)c21 [Compound 39, 4-(4-(5-Chloro-7-methyl-1-propyl-1H-pyrrolo[3,2-b]pyridin-3-yl)pyrimidin-2-ylamino)benzenesulfonamide] | 4.72 | > 10 | > 10 | 3.3 | 3.7 | 3.41 | 5.25 | 1.26 | 1.67 | 13.7 | 0.62 | 0.1 | 0.32 | > 10 | 2.03 | 0.42 | 0.057 | 1.03 | – | IC50 [1]: > 10 µM; IC50 [14]: 1.27 µM |
| CCCn1cc(-c2ccnc(Nc3cccc([N+](=O)[O-])c3)n2)c2cccnc21 [Compound 17, N-(3-Nitrophenyl)-4-(1-propyl-1H-pyrrolo[2,3-b]pyridin-3-yl)pyrimidin-2-amine] | 2.31 | > 10 | 4.93 | 4.22 | 6.06 | 5.48 | 6.29 | 4.91 | 0.463 | 2.45 | 1.16 | 1.19 | > 10 | 7.64 | 2.63 | 2.19 | 0.16 | 2.49 | > 10 | – |
| Cn1cc(-c2ccnc(Nc3ccc(O)cc3)n2)c2ccccc21 [Compound 2, 4-(4-(1-Methyl-1H-indol-3-yl)pyrimidin-2-ylamino)phenol] | 6.17 | 0.95 | 9.56 | 4.93 | 14.5 | 6.37 | 6.3 | 7.33 | 0.305 | 23.4 | 0.15 | 5.97 | 0.2 | 0.742 | 6.16 | 8.29 | 0.043 | 6.39 | > 10 | – |
